According to US20200121677A1, “SUBSTITUTED 6,7-DIHYDROPYRAZOLO[1,5-a]PYRAZINES AS NEGATIVE ALLOSTERIC MODULATORS OF MGLUR2 RECEPTORS” (Janssen Pharmaceutica NV, priority 2014, published 2020):

Tests used:
Male Wiga Wistar rats = assay: Reversal of LY-404039-induced decrease of palpebral opening in apomorphine-challenged rats; type: in vivo, rat; conditions: for ED50: Rattus norvegicus, rats, route PO (route cell empty for Co. 88 and 84), read-out: ED50 APO LY-404039 (Reversal of LY-404039-induced decrease of palpebral opening in apomorphine challenged rats)
Protocol: 1) Reversal of LY-404039-Induced Decrease of Palpebral Opening in Apomorphine-Challenged Rats.
Male Wiga Wistar rats (Crl:WI; Charles River Germany; 220±40 g) were housed under standard laboratory conditions (21±2° C.; 50-65% relative humidity; light-dark cycle set at 12 h; lights on at 6.00 h) and fasted overnight prior to the start of the experiments (tap water remained available ad libitum). During the test period, they were housed in individual cages. Palpebral opening was scored every 5 min over the first hour after injection of apomorphine (1.0 mg/kg, i.v.) in animals either pretreated or not pretreated with LY-404039 (2.5 mg/kg, s.c.) at 1 h prior to the apomorphine injection. The animals were also pretreated with test compound or solvent at a predefined interval before apomorphine challenge. The score system was: (5) exophthalmos, (4) wide open, (3) open for three-quarters, (2) half open, (1) open for one-quarter, (0) closed. The scores for palpebral opening were cumulated over the 60-min observation period.

rats = assay: Reversal of the effect of the mGluR2 PAM JNJ-42153605-induced inhibition of scopolamine-induced hyperlocomotion; type: in vivo, rat; conditions: Rattus norvegicus; rats, route PO, criterion total distance >1500 cm; read-out: ED50 SCOP JNJ-42153605 (Reversal of the effect of JNJ 42153605 on scopolamine-induced hyperlocomotion)
Protocol: 2) Reversal of the Effect of the mGluR2 PAM JNJ-42153605-Induced Inhibition of Scopolamine-Induced Hyperlocomotion
Motor activity was measured in microprocessor-based motor activity arenas (closed gray PVC cylinders with a height of 39 cm and a diameter of 31 cm). Each arena was placed on an infrared LED (8×8 LEDs) lit box (white PVC squared box; 40×40 cm^2; height 12.5 cm. An infrared-sensitive tube camera and a white light source were mounted to the ceiling above the observation chamber to track the animal. The total distance traveled (cm) was recorded and analyzed using the Noldus Ethovision XT Video Tracking System (Version 7.0.418; Noldus, Wageningen, The Netherlands). The intensity of the light within the activity cages (measured in the centre at the level of the floor) ranged between 4 and 8 LUX.
The rats were pretreated with test compound or vehicle at 60 min before the start of the activity recordings and placed into individual cages. The rats were challenged with JNJ-42153605 (3-(cyclopropylmethyl)-7-(4-phenylpiperidin-1-yl)-8-(trifluoromethyl)[1,2,4]triazolo[4,3-a]pyridine; WO2010/130424; Cid et al. J. Med. Chem. 2012, 55, 8770-8789) (20 mg/kg, i.v.) 30 min before the start of the activity recording combined with scopolamine (0.16 mg/kg, i.v.) just before the start of the activity measurements. Immediately after the injection of scopolamine, the rats were placed into the activity monitors and total distance traveled over the first 30 min was measured.
For reversal of the inhibitory effect of JNJ-42153605 on the scopolamine-induced hyperlocomotion, the following all-or-none criteria were adopted: (1) reversal: total distance >1500 cm.

human mGlu2 receptor = human mGlu2 receptor (Homo sapiens, UniProt Q14416); assay: [35S]GTPγS binding assay, mGluR2 negative allosteric modulation (membranes from CHO cells transfected with human mGlu2 receptor, glutamate ~EC80 60 μM); conditions: for IC50: GTPγS - hmGluR2 anGT pIC50, membranes with human mGlu2 receptor, glutamate ~EC80 (60 μM), pIC50 = -log IC50 (M); for Emax: read-out: GTPγS - hmGluR2 anGT Emax, relative maximal effect: maximal % inhibition relative to the control glutamate response;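 on all read-outs here: membranes preincubated 30 min at 30 °C with compound plus glutamate, then [35S]GTPγS (0.1 nM) incorporation measured over another 30 min at 30 °C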
human mGlu2 receptor, sequence (Q14416 19-872): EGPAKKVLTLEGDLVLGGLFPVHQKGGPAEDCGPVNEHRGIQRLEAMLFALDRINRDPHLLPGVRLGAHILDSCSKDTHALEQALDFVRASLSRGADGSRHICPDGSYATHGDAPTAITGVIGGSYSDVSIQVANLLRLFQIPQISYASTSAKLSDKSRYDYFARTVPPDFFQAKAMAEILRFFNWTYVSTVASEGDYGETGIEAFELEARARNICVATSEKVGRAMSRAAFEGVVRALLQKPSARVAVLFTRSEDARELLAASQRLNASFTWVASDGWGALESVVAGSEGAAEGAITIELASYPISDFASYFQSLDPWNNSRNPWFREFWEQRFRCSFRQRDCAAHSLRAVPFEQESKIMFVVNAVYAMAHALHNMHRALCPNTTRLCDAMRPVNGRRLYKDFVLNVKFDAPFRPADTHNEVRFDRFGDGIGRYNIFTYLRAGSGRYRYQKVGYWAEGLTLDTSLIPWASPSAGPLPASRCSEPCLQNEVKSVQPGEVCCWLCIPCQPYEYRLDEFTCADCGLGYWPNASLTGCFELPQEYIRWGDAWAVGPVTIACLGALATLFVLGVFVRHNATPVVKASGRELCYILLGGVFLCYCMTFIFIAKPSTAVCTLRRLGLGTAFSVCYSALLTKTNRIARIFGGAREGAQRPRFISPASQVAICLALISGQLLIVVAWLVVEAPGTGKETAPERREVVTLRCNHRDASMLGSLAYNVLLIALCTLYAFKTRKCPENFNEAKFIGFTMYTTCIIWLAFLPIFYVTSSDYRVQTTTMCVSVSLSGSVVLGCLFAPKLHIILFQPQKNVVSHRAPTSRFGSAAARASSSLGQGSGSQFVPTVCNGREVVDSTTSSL

N[C@@]1(C(=O)O)CS(=O)(=O)[C@H]2[C@H](C(=O)O)[C@H]21 [LY-404039, reference compound]
Palpebral opening score, Occurrence score > 26 (%) (Male Wiga Wistar rats; control animals, scores cumulated over 60 min after apomorphine 1.0 mg/kg i.v., LY-404039 2.5 mg/kg s.c. 1 h before apomorphine): 3.2%

C[C@H]1CN(c2ccc(C(F)(F)F)cc2)C(=O)c2c(C(=O)Nc3cncc(F)c3)cnn21 [compound 13]
ED50 (Male Wiga Wistar rats): 0.32 mg/kg | ED50 (rats): 0.32 mg/kg | melting point: 196.7 °C | IC50 (human mGlu2 receptor): 2.24e-09 M | Emax (human mGlu2 receptor): 110%

Cc1ccncc1NC(=O)c1cnn2c1C(=O)N(c1ccc(C(F)(F)F)cc1)C[C@@H]2C [compound 14]
ED50 (Male Wiga Wistar rats): 0.13 mg/kg | ED50 (rats): 0.13 mg/kg | melting point: 249.5 °C | IC50 (human mGlu2 receptor): 2.45e-09 M | Emax (human mGlu2 receptor): 109%

C[C@H]1CN(c2ccc(C(F)(F)F)cc2)C(=O)c2c(C(=O)Nc3ccc(N)nc3)cnn21 [compound 19]
ED50 (rats): 0.79 mg/kg | melting point: 181.5 °C | IC50 (human mGlu2 receptor): 2.63e-09 M | Emax (human mGlu2 receptor): 104%

C[C@H]1CN(c2ccc(C(F)(F)F)c(F)c2)C(=O)c2c(C(=O)Nc3ccccn3)cnn21 [compound 20]
ED50 (Male Wiga Wistar rats): > 2.5 mg/kg | ED50 (rats): > 2.5 mg/kg | melting point: 199.2 °C | IC50 (human mGlu2 receptor): 1.07e-08 M | Emax (human mGlu2 receptor): 113%

C[C@H]1CN(c2ccc(Cl)c(Cl)c2)C(=O)c2c(C(=O)Nc3ccccn3)cnn21 [compound 25]
ED50 (Male Wiga Wistar rats): > 10 mg/kg | ED50 (rats): > 2.5 mg/kg | melting point: 258.4 °C | IC50 (human mGlu2 receptor): 3.09e-09 M | Emax (human mGlu2 receptor): 112%

COc1cc(N2C[C@H](C)n3ncc(C(=O)Nc4cnccc4C)c3C2=O)ccc1C(F)(F)F [compound 32]
ED50 (rats): > 0.63 mg/kg | melting point: 243.4 °C | IC50 (human mGlu2 receptor): 3.47e-09 M | Emax (human mGlu2 receptor): 111%

COc1cc(N2C[C@H](C)n3ncc(C(=O)Nc4cncc(C)c4)c3C2=O)ccc1C(F)(F)F [compound 33]
ED50 (rats): > 0.63 mg/kg | melting point: 216.6 °C | IC50 (human mGlu2 receptor): 3.72e-09 M | Emax (human mGlu2 receptor): 111%

Cc1cc(N2C[C@H](C)n3ncc(C(=O)Nc4ccccn4)c3C2=O)ccc1C(F)(F)F [compound 35]
ED50 (Male Wiga Wistar rats): > 10 mg/kg | ED50 (rats): > 2.5 mg/kg | melting point: 227.3 °C | IC50 (human mGlu2 receptor): 3.98e-09 M | Emax (human mGlu2 receptor): 114%

Cc1cncc(NC(=O)c2cnn3c2C(=O)N(c2ccc(C(F)(F)F)c(C)c2)C[C@@H]3C)c1 [compound 37]
ED50 (Male Wiga Wistar rats): > 0.63 mg/kg | ED50 (rats): > 0.63 mg/kg | melting point: 202.8 °C | IC50 (human mGlu2 receptor): 7.24e-10 M | Emax (human mGlu2 receptor): 108%

COc1cncc(NC(=O)c2cnn3c2C(=O)N(c2ccc(C(F)(F)F)c(C)c2)C[C@@H]3C)c1 [compound 40]
ED50 (Male Wiga Wistar rats): > 0.63 mg/kg | ED50 (rats): > 0.63 mg/kg | melting point: 194.8 °C | IC50 (human mGlu2 receptor): 2.14e-09 M | Emax (human mGlu2 receptor): 111%

C[C@H]1CN(c2ccc(Cl)cc2)C(=O)c2c(C(=O)Nc3cccnc3)cnn21 [compound 41]
ED50 (Male Wiga Wistar rats): 0.32 mg/kg | ED50 (rats): > 0.63 mg/kg | melting point: 180 °C | IC50 (human mGlu2 receptor): 6.17e-09 M | Emax (human mGlu2 receptor): 106%

C[C@H]1CN(c2ccc(C(F)(F)F)c(F)c2)C(=O)c2c(C(=O)Nc3ccc(F)cn3)cnn21 [compound 78]
ED50 (rats): > 0.63 mg/kg | melting point: 183.36 °C | IC50 (human mGlu2 receptor): 1.35e-08 M | Emax (human mGlu2 receptor): 106%

Cc1cc(NC(=O)c2cnn3c2C(=O)N(c2ccc(Cl)c(OC(F)F)c2)C[C@@H]3C)ccn1 [compound 84, (7S)-5-[4-chloro-3-(difluoromethoxy)phenyl]-7-methyl-N-(2-methyl-4-pyridyl)-4-oxo-6,7-dihydropyrazolo[1,5-a]pyrazine-3-carboxamide]
ED50 (Male Wiga Wistar rats): > 2.5 mg/kg | melting point: 196.7 °C | IC50 (human mGlu2 receptor): 7.41e-09 M | Emax (human mGlu2 receptor): 112%

Cc1cc(NC(=O)c2cnn3c2C(=O)N(c2ccc(C(F)(F)F)c(C)c2)C[C@@H]3C)ccn1 [compound 86]
ED50 (rats): 1.26 mg/kg | melting point: 121.8 °C | IC50 (human mGlu2 receptor): 2.29e-09 M | Emax (human mGlu2 receptor): 105%

Cc1cc(NC(=O)c2cnn3c2C(=O)N(c2ccc(C(F)(F)F)cn2)C[C@@H]3C)ccn1 [compound 88]
ED50 (Male Wiga Wistar rats): > 2.5 mg/kg | melting point: 244.9 °C | IC50 (human mGlu2 receptor): 8.51e-09 M | Emax (human mGlu2 receptor): 106%

Cc1cc(NC(=O)c2cnn3c2C(=O)N(c2ccc(Cl)cc2)C[C@@H]3C)ccn1 [compound 89]
ED50 (rats): > 2.5 mg/kg | melting point: 171.4 °C | IC50 (human mGlu2 receptor): 1.05e-08 M | Emax (human mGlu2 receptor): 107%

C[C@H]1CN(c2ccc(Cl)c(Cl)c2)C(=O)c2c(C(=O)Nc3ccc(F)cn3)cnn21 [compound 98, (7S)-5-(3,4-Dichlorophenyl)-N-(5-fluoro-2-pyridyl)-7-methyl-4-oxo-6,7-dihydropyrazolo[1,5-a]pyrazine-3-carboxamide]
ED50 (rats): > 0.63 mg/kg | melting point: 179.56 °C | IC50 (human mGlu2 receptor): 3.63e-09 M | Emax (human mGlu2 receptor): 107%

C[C@H]1CN(c2ccc(C(F)(F)F)cc2)C(=O)c2c(C(=O)Nc3ccc(F)cn3)cnn21 [compound 104]
ED50 (rats): > 0.63 mg/kg | melting point: 184.48 °C | IC50 (human mGlu2 receptor): 8.13e-09 M | Emax (human mGlu2 receptor): 108%

Cc1cc(NC(=O)c2cnn3c2C(=O)N(c2ccc(C(F)(F)F)c(Cl)c2)C[C@@H]3C)cc(C)n1 [compound 107]
ED50 (Male Wiga Wistar rats): > 0.63 mg/kg | ED50 (rats): > 0.63 mg/kg | IC50 (human mGlu2 receptor): 1.48e-09 M | Emax (human mGlu2 receptor): 107%

C[C@H]1CN(c2ccc(C(F)(F)F)c(Cl)c2)C(=O)c2c(C(=O)Nc3ccc(F)cn3)cnn21 [compound 108]
ED50 (rats): > 0.63 mg/kg | melting point: 212.88 °C | IC50 (human mGlu2 receptor): 2.82e-09 M | Emax (human mGlu2 receptor): 104%

Cc1cc(NC(=O)c2cnn3c2C(=O)N(c2ccc(C(F)(F)F)c(C)c2)C[C@@H]3C)cc(C)n1 [compound 111]
ED50 (rats): 0.32 mg/kg | melting point: 161.92 °C | IC50 (human mGlu2 receptor): 1.45e-09 M | Emax (human mGlu2 receptor): 109%

COc1cncc(NC(=O)c2cnn3c2C(=O)N(c2ccc(C(F)(F)F)c(Cl)c2)C[C@@H]3C)c1C [compound 127]
ED50 (rats): > 0.63 mg/kg | melting point: 185.94 °C | IC50 (human mGlu2 receptor): 4.07e-09 M | Emax (human mGlu2 receptor): 108%

Cc1c(F)cncc1NC(=O)c1cnn2c1C(=O)N(c1ccc(C(F)(F)F)c(Cl)c1)C[C@@H]2C [compound 133, (7S)-5-[3-chloro-4-(trifluoromethyl)phenyl]-N-(5-fluoro-4-methyl-3-pyridyl)-7-methyl-4-oxo-6,7-dihydropyrazolo[1,5-a]pyrazine-3-carboxamide]
ED50 (rats): > 0.63 mg/kg | melting point: 167.78 °C | IC50 (human mGlu2 receptor): 9.12e-10 M | Emax (human mGlu2 receptor): 105%

C[C@H]1CN(c2ccc(C(F)(F)F)cc2)C(=O)c2c(C(=O)Nc3nccs3)cnn21 [compound 140]
ED50 (rats): > 2.5 mg/kg | melting point: 246.7 °C | IC50 (human mGlu2 receptor): 9.33e-09 M | Emax (human mGlu2 receptor): 111%

C[C@H]1CN(c2ccc(C(F)(F)F)cc2)C(=O)c2c(C(=O)Nc3ccncn3)cnn21 [compound 141]
ED50 (rats): > 2.5 mg/kg | melting point: 224.9 °C | IC50 (human mGlu2 receptor): 8.32e-09 M | Emax (human mGlu2 receptor): 113%

C[C@H]1CN(c2ccc(C(F)(F)F)cc2)C(=O)c2c(C(=O)Nc3cnccc3CO)cnn21 [compound 147]
ED50 (rats): > 0.63 mg/kg | melting point: 212.57 °C | IC50 (human mGlu2 receptor): 5.37e-08 M | Emax (human mGlu2 receptor): 103%

C[C@H]1CN(c2ccc(C(F)(F)F)cc2)C(=O)c2c(C(=O)Nc3ccnc(CF)c3)cnn21 [compound 151]
ED50 (rats): > 0.63 mg/kg | melting point: 152.64 °C | IC50 (human mGlu2 receptor): 2.69e-09 M | Emax (human mGlu2 receptor): 115%

C[C@H]1CN(c2ccc(OC(F)(F)F)c(Cl)c2)C(=O)c2c(C(=O)Nc3cccnc3)cnn21 [compound 152]
ED50 (rats): 0.08 mg/kg | melting point: 145.36 °C | IC50 (human mGlu2 receptor): 1.05e-09 M | Emax (human mGlu2 receptor): 108%

Cc1cc(NC(=O)c2cnn3c2C(=O)N(c2ccc(Cl)c(C)c2)C[C@@H]3C)cc(C)n1 [compound 160]
ED50 (rats): > 0.63 mg/kg | melting point: 178.1 °C | IC50 (human mGlu2 receptor): 3.55e-09 M | Emax (human mGlu2 receptor): 112%

Cc1cc(N2C[C@H](C)n3ncc(C(=O)Nc4cnccn4)c3C2=O)ccc1Cl [compound 161]
ED50 (rats): > 0.63 mg/kg | melting point: 233.4 °C | IC50 (human mGlu2 receptor): 2.82e-09 M | Emax (human mGlu2 receptor): 108%
